Literature values, collected in patent publication US20040115749A1, “Cardiovascular disease and thrombotic risk diagnostic tests” (priority 2001, published 2004).

Test system: ELISA kit for 13(S)-HODE (anti-13(S)-HODE specific antibody)
Conditions: commercial ELISA kit for 13(S)-HODE

CCCCC[C@@H](O)/C=C/C=C\CCCCCCCC(=O)O [13(R)-HODE]
cross-reactivity: 10%
